According to patent US9537110B2, “Chalcogen-containing organic compound and use thereof” (JNC CORPORATION, priority 2012, dated 2017):
Values after ≈ are worked out from the molar mass of the structure shown. Like-named read-outs stand apart in the source and are kept apart here. Each block holds one compound with its values, some of them ahead of it.

Experiments:
[1] = Evaluation of chemical stability by UV-Vis spectrum; format: physicochemical
Procedure: Then, 0.6951 mg of the compound synthesized in Example 3 was weighed, and dissolved into degassed benzonitrile (25 mL) using a measuring flask in a glove box (solution concentration: 4.92×10^−5 M). A prepared solution thereof was put into a UV cell with a cover, and a UV-Vis spectrum (device used: Jasco V-570 Spectrometer, made by JASCO Corporation) was immediately measured. Subsequently, opening and closing of the cover were repeated several times under atmospheric air to bring the solution into contact with oxygen in air.
Moreover, a film having a thickness of 100 nanometers formed by performing vacuum deposition of the compound synthesized in Example 3 was allowed to stand for one week in atmospheric air. The results obtained by measuring UV-Vis spectra (device used: Jasco V-570 Spectrometer, made by JASCO Corporation) over time during the period are shown in FIG. 6.

[2] = Solubility evaluation in organic solvents; format: physicochemical; conditions: room temperature; for solubility: organic solvent or mixture
Procedure: Solubility of the compound was evaluated. As a result, under room temperature, the compound was dissolved into chloroform at 381 g/L (20.5 wt. %), and into toluene at 137 g/L (13.6 wt. %). The compound is clearly found to show high solubility in any of solvent to allow use in an application process.
Solubility of the compound was evaluated. As a result, under room temperature, the compound was dissolved into chloroform at 43 g/L (2.8 wt. %), and into toluene at 23 g/L (2.6 wt. %). The compound is clearly found to show high solubility in any of solvent to allow use in an application process.

[3] = chloroform, read-out: Solubility in chloroform
[4] = toluene, read-out: Solubility in toluene

- melting point: 282 to 283 °C
SMILES: c1ccc2cc3c(cc2c1)sc1cc2ccccc2cc13 [Comparative Example 1, dinaphtho[2,3-b:2′,3′-d]thiophene]

- melting point: 175 to 176 °C
SMILES: CCCCCCCCCCc1ccc2cc3oc4cc5ccc(CCCCCCCCCC)cc5cc4c3cc2c1 [Example 1, 2,10-didecyldinaphtho[2,3-b:2′,3′-d]furan]

- melting point: 122 to 123 °C
SMILES: CCCCCCCCCCc1ccc2cc3sc4cc5ccc(CCCCCCCCCC)cc5cc4c3cc2c1 [Example 2, 2,10-didecyldinaphtho[2,3-b:2′,3′-d]thiophene]

- Change of UV-Vis spectrum of solution ([1]; benzonitrile solution 4.92×10^−5 M, contact with oxygen in air, 3, 24 and 72 hours): no change of the spectrum was observed
- Chemical stability (conclusion) ([1]; solution and film in air): chemically stable
- Change of UV-Vis spectrum of film ([1]; vacuum-deposited film 100 nanometers, one week in atmospheric air): no change of the spectrum was observed
- melting point: 216 to 217 °C
SMILES: CCCCCCCCCCc1ccc2cc3c(cc2c1)oc1cc2cc(CCCCCCCCCC)ccc2cc13 [Example 3, 3,9-didecyldinaphtho[2,3-b:2′,3′-d]furan]

- melting point: 198.7 to 199.1 °C
SMILES: CCCCCCc1ccc2cc3c(cc2c1)oc1cc2cc(CCCCCC)ccc2cc13 [Example 5, 3,9-dihexyldinaphtho[2,3-b:2′,3′-d]furan]

- melting point: 182 to 183 °C
SMILES: CCCCCCCCCCc1ccc2cc3c(cc2c1)sc1cc2cc(CCCCCCCCCC)ccc2cc13 [Example 6, 3,9-didecyldinaphtho[2,3-b:2′,3′-d]thiophene]

- melting point: 202 to 202.4 °C
SMILES: CCCCCCc1ccc2cc3c(cc2c1)sc1cc2cc(CCCCCC)ccc2cc13 [Example 7, 3,9-dihexyldinaphtho[2,3-b:2′,3′-d]thiophene]

- melting point: 193.7 to 194.8 °C
SMILES: CCCCCCCCc1ccc2cc3c(cc2c1)sc1cc2cc(CCCCCCCC)ccc2cc13 [Example 8, 3,9-dioctyldinaphtho[2,3-b:2′,3′-d]thiophene]

- solubility [2, 3]: 381 mg/mL (≈ 773 mM)
- solubility [2, 4]: 137 mg/mL (≈ 278 mM)
- Solubility in chloroform ([2]; chloroform): 20.5 wt. %
- Solubility in toluene ([2]; toluene): 13.6 wt. %
SMILES: CCCCCCCCc1cc2oc3cc(CCCCCCCC)c4ccccc4c3c2c2ccccc12 [Example 18, 5,9-dioctyldinaphtho[2,1-b:1′,2′-d]furan]

- solubility [2, 3]: 43 mg/mL (≈ 102 mM)
- solubility [2, 4]: 23 mg/mL (≈ 54.7 mM)
- Solubility in chloroform ([2]; chloroform): 2.8 wt. %
- Solubility in toluene ([2]; toluene): 2.6 wt. %
SMILES: c1ccc(-c2cc3oc4cc(-c5ccccc5)c5ccccc5c4c3c3ccccc23)cc1 [Example 20, 5,9-diphenyldinaphtho[2,1-b:1′,2′-d]furan]
